The results in this text go back to patent US20210255184A1, “Biosensor Device and Methods” (The New Zealand Institute for Plant and Food Research …, priority 2018, published 2021).

The target in the assay is T1, Or22a (Drosophila melanogaster, UniProt P81909).
T1 construct: his-tag; made in house; host or cells: baculovirus-infected Sf9 cells
T1 sequence (P81909 1-397): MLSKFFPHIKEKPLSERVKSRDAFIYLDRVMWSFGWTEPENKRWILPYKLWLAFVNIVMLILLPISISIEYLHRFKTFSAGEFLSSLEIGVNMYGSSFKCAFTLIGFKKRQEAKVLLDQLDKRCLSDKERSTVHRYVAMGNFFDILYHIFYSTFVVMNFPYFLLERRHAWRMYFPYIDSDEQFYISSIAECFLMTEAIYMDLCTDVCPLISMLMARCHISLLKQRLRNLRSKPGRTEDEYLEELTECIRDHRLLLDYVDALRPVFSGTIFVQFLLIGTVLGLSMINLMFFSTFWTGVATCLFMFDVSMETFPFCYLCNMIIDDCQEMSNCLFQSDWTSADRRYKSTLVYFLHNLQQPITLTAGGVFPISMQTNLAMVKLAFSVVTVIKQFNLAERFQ
The assay can be described thus: Droplet interface bilayer ion channel recording, Or22a only. To be noted: DIB, 10 μM ligand, holding potential +/−150, +/−100, +/−50 mV. It counts as biochemical. As to the method:
Bilayers were formed between two droplets formed within a PMMA chamber filled with 1 mg/ml DPhPC in undecane and AR20 silicone oil (1:1 ratio). The first step in this process was to deposit a 50 nl droplet onto the stationary silver electrode positioned at the base of the well; this droplet consisted of an aqueous solution containing 300 mM NaCl, 10 mM HEPES (pH 7.4), containing the odorant receptor proteins in proteoliposomes (at a 1:20 dilution from the proteoliposome preparation), […] The second droplet was mounted onto a second silver electrode which was held in the oil and lipid mixture using a YOU-3 manipulator (Narishige, Japan). […] Once the droplets were in contact a bilayer formed spontaneously within 1 minute (as determined by visual assessment and an increase in the bilayer capacitance as measured with a capacitance voltage protocol using the Pico2 amplifier). Insertion of an active channel was determined by a change in current while clamping the voltage at 50 mV. […]
Currents were recorded with a Pico2 or an eONE-HS amplifier (Tecella, USA and Elements, Italy, respectively) with built-in digitizers, operating in gap-free acquisition mode at a sampling frequency of 20 kHz, and using a 0.8 or 1.5 kHz low pass filter. […]
Data were analysed using ANA (Dr Pusch, Genoa), EDR (Elements, Italy) and WinWCP (Dr Dempster, University of Strathclyde). […]

With `CCCCCC(=O)OC` [methyl hexanoate], the ion channel activity result is “No ion channel activity”.
